Key:
Type in all cases: cell-based, mouse
TCR 4 Analog 1 = assay: Single SABR-II co-incubation, TCR analogs; conditions: Fig 4B
Text: (§1) We hypothesized that computational grouping of TCR specificities may reveal closely related TCRs that potentially recognize the same epitope(s), similar to the reverse epitope discovery approach (Fig. 4a). In the absence of experimental antigen discovery, grouping of TCRs is not informative of reactivity; however, we hypothesized that TCRs that co-clustered with SABR-II de-convoluted TCRs bind to the same antigens. To test this, we used three TCR-similarity search algorithms: GLIPH2 (refs. [38],[69]), tcrdist3 (ref. [37]) and CoNGA[39]. All three algorithms take slightly different approaches to group TCR sequences and generate clusters of TCR sequences that share high sequence similarity. In addition, CoNGA considers the transcriptional similarities among T cell clones. Using CoNGA, we defined TCR clusters for two TCRs, TCR4 and TCR6B, and identified analogs that slightly differed in sequences. Moreover, for TCR30, we were able to identify six TCR analogs that co-clustered in CoNGA analysis as well as GLIPH2. For TCR11, we first identified a gene expression (GEX) cluster that had ~50 TCRs that clustered based on gene expression. Using tcrdist3, we calculated the relative distance of each of these TCRs from TCR11 and selected the top seven clonotypes for expression. Together, 16 TCRs were identified as analogs of the experimentally de-convoluted TCRs (Extended Data Fig. 8). These TCRs were cloned and expressed in Jurkat cells. We performed co-incubation assays using single SABR-IIs and observed that 5 of 16 TCRs recognized the same epitopes as the parental TCRs (Fig. 4b). As a result, we were able to identify the cognate epitopes of five additional TCRs from our dataset that had otherwise not been selected for SABR-II screening based on our clonal expansion cutoff.
(§2) Exported clonotypes were used as inputs for GLIPH2 (ref. [69]). For CoNGA, the merged dataset was exported as a .h5ad file and used as an input along with the CellRanger vdj output file. CoNGA analysis was performed using default parameters. Pairwise relative distances among TCRs were calculated using tcrdist3 (ref. [37]). CoNGA, tcrdist3 and GLIPH2 output files were searched manually for analogs that co-cluster with experimentally de-convoluted TCRs. Analogs were synthesized and cloned as described above.
(§3) For SABR library screens, 3 × 10^6 NFAT–GFP Jurkat cells expressing the SABR library were labeled with CellTrace Violet (BioLegend) according to the manufacturer’s protocol before incubation with 3 × 10^6 Jurkat cells expressing the TCR of interest. These mixtures were incubated in a six-well plate for 16–20 h. Cells were stained with anti-CD69-APC-Cy7 where indicated (BioLegend) and the top 1–2% of GFP^+CD69^+ cells were sorted for genomic DNA extraction, indexing and sequencing (see below). Multiplexed assays were scaled on a per-TCR basis (for example 3 × 10^6 for each of three TCRs against 9 × 10^6 library cells). For single SABR assays, unless otherwise defined, 5 × 10^5 SABR expressing NFAT–GFP Jurkat cells (or 5KC cells) were labeled with CellTrace Violet (BioLegend) according to the manufacturer’s protocol before incubation with 5 × 10^5 TCR-expressing Jurkat cells (or 5KC cells) in a round-bottom 96-well plate for 16–20 h. Cells were stained with anti-CD69-APC-Cy7 when indicated and acquired on the Attune NxT flow cytometer (Thermo Fisher Scientific). All flow analysis was performed using FlowJo (BD). For Daudi cell co-culture, 1 × 10^6 Jurkat cells expressing the TCR of interest were incubated with 1 × 10^6 Daudi cells expressing a SABR of interest for 3 days. On day 3, cells were labeled with anti-RT1B-PE and anti-Fas-APC-Cy7 before being acquired on the Attune NxT flow cytometer.

TCR 4 Analog 2 = assay: Single SABR-II co-incubation, TCR analogs; conditions: Fig 4B
Text: as §1, §2, §3

TCR 11 Analog 1 = assay: Single SABR-II co-incubation, TCR analogs; conditions: Fig 4B
Text: as §1, §2, §3

TCR 11 Analog 2 = assay: Single SABR-II co-incubation, TCR analogs; conditions: Fig 4B
Text: as §1, §2, §3

TCR 11 Analog 3 = assay: Single SABR-II co-incubation, TCR analogs; conditions: Fig 4B
Text: as §1, §2, §3

TCR 11 Analog 4 = assay: Single SABR-II co-incubation, TCR analogs; conditions: Fig 4B
Text: as §1, §2, §3

TCR 11 Analog 5 = assay: Single SABR-II co-incubation, TCR analogs; conditions: Fig 4B
Text: as §1, §2, §3

TCR 11 Analog 6 = assay: Single SABR-II co-incubation, TCR analogs; conditions: Fig 4B
Text: as §1, §2, §3

TCR 11 Analog 7 = assay: Single SABR-II co-incubation, TCR analogs; conditions: Fig 4B
Text: as §1, §2, §3

TCR 30 Analog 1 = assay: Single SABR-II co-incubation, TCR analogs; conditions: Fig 4B
Text: as §1, §2, §3

TCR 30 Analog 2 = assay: Single SABR-II co-incubation, TCR analogs; conditions: Fig 4B
Text: as §1, §2, §3

TCR 30 Analog 3 = assay: Single SABR-II co-incubation, TCR analogs; conditions: Fig 4B
Text: as §1, §2, §3

TCR 30 Analog 4 = assay: Single SABR-II co-incubation, TCR analogs; conditions: Fig 4B
Text: as §1, §2, §3

TCR 30 Analog 5 = assay: Single SABR-II co-incubation, TCR analogs; conditions: Fig 4B
Text: as §1, §2, §3

TCR 30 Analog 6 = assay: Single SABR-II co-incubation, TCR analogs; conditions: Fig 4B
Text: as §1, §2, §3

5KC cells, No TCR = assay: mIL-2 ELISA, 5KC cells without TCR with SABR NFAT-GFP Jurkat cells; conditions: murine IL-2 ELISA, 24 hr co-incubation

Sequence: LQTLALNAARDP
- %GFP+CD69+ cells of SABR-NFAT-GFP-Jurkat cells (TCR 4 Analog 1; technical replicate 1): 1.53%
- %GFP+CD69+ cells of SABR-NFAT-GFP-Jurkat cells (TCR 4 Analog 1; technical replicate 2): 1.83%
- %GFP+CD69+ cells of SABR-NFAT-GFP-Jurkat cells (TCR 4 Analog 2; technical replicate 1): 1%
- %GFP+CD69+ cells of SABR-NFAT-GFP-Jurkat cells (TCR 4 Analog 2; technical replicate 2): 0.84%

Sequence: SHLVEALYLVCGERG
- %GFP+CD69+ cells of SABR-NFAT-GFP-Jurkat cells (TCR 11 Analog 1; technical replicate 1): 0.66%
- %GFP+CD69+ cells of SABR-NFAT-GFP-Jurkat cells (TCR 11 Analog 1; technical replicate 2): 0.81%
- %GFP+CD69+ cells of SABR-NFAT-GFP-Jurkat cells (TCR 11 Analog 2; technical replicate 1): 17.2%
- %GFP+CD69+ cells of SABR-NFAT-GFP-Jurkat cells (TCR 11 Analog 2; technical replicate 2): 16.8%
- %GFP+CD69+ cells of SABR-NFAT-GFP-Jurkat cells (TCR 11 Analog 3; technical replicate 1): 0.85%
- %GFP+CD69+ cells of SABR-NFAT-GFP-Jurkat cells (TCR 11 Analog 3; technical replicate 2): 1.04%
- %GFP+CD69+ cells of SABR-NFAT-GFP-Jurkat cells (TCR 11 Analog 4; technical replicate 1): 0.89%
- %GFP+CD69+ cells of SABR-NFAT-GFP-Jurkat cells (TCR 11 Analog 4; technical replicate 2): 0.88%
- %GFP+CD69+ cells of SABR-NFAT-GFP-Jurkat cells (TCR 11 Analog 5; technical replicate 1): 20.3%
- %GFP+CD69+ cells of SABR-NFAT-GFP-Jurkat cells (TCR 11 Analog 5; technical replicate 2): 19.7%
- %GFP+CD69+ cells of SABR-NFAT-GFP-Jurkat cells (TCR 11 Analog 6; technical replicate 1): 1%
- %GFP+CD69+ cells of SABR-NFAT-GFP-Jurkat cells (TCR 11 Analog 6; technical replicate 2): 1.08%
- %GFP+CD69+ cells of SABR-NFAT-GFP-Jurkat cells (TCR 11 Analog 7; technical replicate 1): 0.78%
- %GFP+CD69+ cells of SABR-NFAT-GFP-Jurkat cells (TCR 11 Analog 7; technical replicate 2): 1.05%
- %GFP+CD69+ cells of SABR-NFAT-GFP-Jurkat cells (TCR 30 Analog 1; replicate 1): 3.25%
- %GFP+CD69+ cells of SABR-NFAT-GFP-Jurkat cells (TCR 30 Analog 1; replicate 2): 3.04%
- %GFP+CD69+ cells of SABR-NFAT-GFP-Jurkat cells (TCR 30 Analog 1; replicate 3): 3.1%
- %GFP+CD69+ cells of SABR-NFAT-GFP-Jurkat cells (TCR 30 Analog 2; replicate 1): 19.2%
- %GFP+CD69+ cells of SABR-NFAT-GFP-Jurkat cells (TCR 30 Analog 2; replicate 2): 19%
- %GFP+CD69+ cells of SABR-NFAT-GFP-Jurkat cells (TCR 30 Analog 2; replicate 3): 20%
- %GFP+CD69+ cells of SABR-NFAT-GFP-Jurkat cells (TCR 30 Analog 3; replicate 1): 1.16%
- %GFP+CD69+ cells of SABR-NFAT-GFP-Jurkat cells (TCR 30 Analog 3; replicate 2): 1.27%
- %GFP+CD69+ cells of SABR-NFAT-GFP-Jurkat cells (TCR 30 Analog 3; replicate 3): 1.1%
- %GFP+CD69+ cells of SABR-NFAT-GFP-Jurkat cells (TCR 30 Analog 4; replicate 1): 1.2%
- %GFP+CD69+ cells of SABR-NFAT-GFP-Jurkat cells (TCR 30 Analog 4; replicate 2): 1.13%
- %GFP+CD69+ cells of SABR-NFAT-GFP-Jurkat cells (TCR 30 Analog 4; replicate 3): 1.05%
- %GFP+CD69+ cells of SABR-NFAT-GFP-Jurkat cells (TCR 30 Analog 5; replicate 1): 34.3%
- %GFP+CD69+ cells of SABR-NFAT-GFP-Jurkat cells (TCR 30 Analog 5; replicate 2): 35.1%
- %GFP+CD69+ cells of SABR-NFAT-GFP-Jurkat cells (TCR 30 Analog 5; replicate 3): 34.2%
- %GFP+CD69+ cells of SABR-NFAT-GFP-Jurkat cells (TCR 30 Analog 6; replicate 1): 1.04%
- %GFP+CD69+ cells of SABR-NFAT-GFP-Jurkat cells (TCR 30 Analog 6; replicate 2): 1.01%
- %GFP+CD69+ cells of SABR-NFAT-GFP-Jurkat cells (TCR 30 Analog 6; replicate 3): 0.97%
- IL-2 secretion (5KC cells, No TCR; technical replicate 1): 2.192
- IL-2 secretion (5KC cells, No TCR; technical replicate 2): 4.996

Reference: PMC11093748, “De novo identification of CD4^+ T cell epitopes” (Nature Methods, 2024)
